In one data set the test system is LDL-C. As to the kind of experiment: Integrated analysis of six Phase 2 studies of Bempedoic acid. The data set is classed as in vivo, human. Conditions: for LDL-C placebo-adjusted LS means for percent change from baseline: integrated analysis of six Phase 2 studies. How it is done:
Doses of Bempedoic acid ranging from 40 to 240 mg/day have been evaluated in the Phase 2 program. Based on data from the integrated analysis of safety and efficacy, observed values and percent change from baseline in the primary efficacy endpoint, LDL-C, together with a positive safety profile, support the choice of the 180-mg dose for the Phase 3 studies. […] Overall, balancing efficacy and safety, the 180-mg dose was chosen for the Phase 3 program.

The subject of a further data set is patients. As to the kind of experiment: Phase 1 and 2 clinical trials of bempedoic acid: adverse events of special interest. The conditions noted are these: Phase 1 or 2 clinical trials to date. The data set is classed as in vivo, human.
For a further data set, the system named is monkey. As to the kind of experiment: Preclinical monkey studies (hypoglycemia and metabolic acidosis).

As for `CC(C)(CCCCCC(O)CCCCCC(C)(C)C(=O)O)C(=O)O` [Bempedoic acid, 8-hydroxy-2,2,14,14 tetramethylpentadecanedioic acid], in the data set with LDL-C (Phase 2 program, 180 mg), the “safety profile of the 180-mg dose” value was “excellent safety profile”. Also, the “LDL-C placebo-adjusted LS means for percent change from baseline” value in the data set with LDL-C (180 mg on top of stable statin therapy) is reported as around 22%; with LDL-C (Bempedoic acid 180 mg, monotherapy or with Ezetimibe 10 mg), “approximately 32%”. Moreover, the “cases of hypoglycemia or metabolic acidosis” value with patients is recorded as “No cases”. The “outcome of hypoglycemia and metabolic acidosis” value in the data set on monkey is reported as “monkey deaths”.

These data come from US20210361618A1, “TRIPLET COMBINATION FORMULATIONS AND METHODS FOR TREATING OR REDUCING THE RISK OF CARDIOVASCULAR DISEASE” (priority 2017, published 2021).
